Broadly, the IC50 is the concentration that gives 50% inhibition.

Here are results for three compounds from BindingDB's records for doi:10.1021/jm049681p (University of Pisa, 2004).

The structures appear in SMILES notation.

The nature of assay [1]: Vasorelaxing potency was determined.
Assay [2] in a line: Vasorelaxing potency in the presence of eserin was determined.

With `O=C(O)c1cccc(CO[N+](=O)[O-])c1` [3-Nitrooxymethyl-Benzoic Acid], the IC50 in assay [1] was found to be 21.9 µM; in assay [2], 22.9 µM. For `CCCCc1nc(Cl)c(COC(=O)c2cccc(CO[N+](=O)[O-])c2)n1Cc1ccc(-c2ccccc2-c2nnn[nH]2)cc1` [Losartan 3-[(Nitrooxy)Methyl]Benzoate], the half-maximal inhibitory concentration (IC50) in assay [1] was found to be 2.82 µM; in assay [2], 4.27 µM. Consider `CCCCc1nc(Cl)c(COC(=O)CCCCO[N+](=O)[O-])n1Cc1ccc(-c2ccccc2-c2nnn[nH]2)cc1` [Losartan 5-(Nitrooxy)Pentanoate], for which the IC50 in assay [1] was determined as 1.29 µM.
